Laboratory results: patent publication US20020016293A1 (priority 2000, published 2002)
Counter-ions that a name gives are not always drawn. Like-named read-outs stand apart in the source and are kept apart here. Non-standard residues stand in square brackets, D forms with d. Residues, ends and D or L forms follow the SMILES beside them. ξ: configuration not given here. *: point of attachment. NMeI = CC[C@H](C)[C@H](NC)C(=O)O; NMeξIle = CC[C@H](C)C(NC)C(=O)O; NMeD = CN[C@@H](CC(=O)O)C(=O)O; NMeV = CN[C@H](C(=O)O)C(C)C; Pip = O=C(O)[C@@H]1CCCCN1; Lac = C[C@H](O)C(=O)O; OtBu = CC(C)(C)O*

How the values were obtained:
[1] = system: p-glycoprotein; settings: cited from earlier work
[2] = system: multidrug resistant cells; settings: no change in nonresistant parental cells; cited from earlier work
[3] = Plasma pharmacokinetics of flavopiridol and flavopiridol glucuronide in metastatic renal cancer patients (HPLC); type: in vivo, human
Source text: All patients had metastatic renal cancer. […] Written informed consent was obtained from each patient in accordance with institutional and Federal guidelines. […] Toxicity assessment was done according to the Cancer and Leukemia Group B (CALGB) expanded toxicity criteria. For grade 3 or greater diarrheal episodes, patients were given loperamide or diphenoxylate hydrochloride plus atropine sulfate (Lomotil®). If diarrhea continued, treatment with octreotide acetate was begun. […] Heparinized blood samples were drawn at 23, 47, and 71 h into the infusion. Plasma was separated immediately by centrifugation and stored at −70° C. until analysis. Chemicals were obtained from Fisher Scientific (Itasca, Ill.) and Sigma Chemical Co. (St. Louis, Mo.). Quantitation of flavopiridol and its glucuronide in plasma was performed by high-pressure liquid chromatography (HPLC). […] Louis, Mo.), and these samples were incubated for 2 h (25° C.) prior to the addition of acetonitrile. […] Human plasma for the preparation of calibration standards was purchased from the Blood Bank at the University of Chicago Hospitals. […] Plasma samples for pharmacokinetics were collected during the first cycle of treatment (at 23, 47, and 71 h). […] Data are expressed as median values and interquartile range (the range of values between the 25th and the 75th percentile of the distribution). Significance has been tested by two-sided statistical tests. […] Moreover, Fisher's exact test was used to assess the association of flavopiridol systemic metabolism with the development of diarrhea. The distribution of the metabolic ratios at 71 h was investigated by constructing a frequency distribution histogram.

[4] = cited from earlier work; for absorption (in words): oral unless stated
[5] = system: p-glycoprotein expressing cell lines; settings: cited from earlier work
[6] = system: p-glycoprotein; settings: cited from earlier work; remark: listed apart in the source
[7] = Diarrhea (CALGB expanded toxicity criteria) in patients given flavopiridol, by glucuronidation phenotype; type: in vivo, human
Source text: Toxicity assessment was done according to the Cancer and Leukemia Group B (CALGB) expanded toxicity criteria. For grade 3 or greater diarrheal episodes, patients were given loperamide or diphenoxylate hydrochloride plus atropine sulfate (Lomotil®). If diarrhea continued, treatment with octreotide acetate was begun.
Data are expressed as median values and interquartile range (the range of values between the 25th and the 75th percentile of the distribution). Significance has been tested by two-sided statistical tests. […] For this analysis, the adjusted P<0.017 (0.05/3) was considered significant.
Poor and extensive glucuronidators had metabolic ratios lower and higher than 1.2, respectively.

[8] = FLAVO glucuronidation assay, normal human liver microsomes; type: in vitro ADME; settings: pooled human liver microsomes, pH 7.4; pool of human liver microsomes, substrate 0.1 to 3 mM, Lineweaver-Burke
Method: FLAVO glucuronidation assay. Reaction conditions were optimized using a range of substrate (0.02-1 mM), human liver microsomal protein (0.25-6 mg/ml) and UDPGA (2-10 mM) concentrations, as well as varying detergents (Brij 58, OLPC, CHAPS, Triton X-100, OLPC), and incubation times (0.5-4 h). […] The final incubation volume (250 μl) contained 50 mM tris-HCl (pH 7.4), 10 mM magnesium chloride, 0.5 mM FLAVO, 3 mg/ml protein, and 3 mM UDPGA. After incubation in a shaking water bath at 37° C. for 3 h, the reaction was terminated by the addition of 1 ml of acetonitrile. […] The supernatant was spiked with 100 μl of internal standard (100 μg/ml flavone in acetonitrile), and evaporated to dryness using nitrogen gas. Control experiments were performed simultaneously by omitting UDPGA. […] Aliquots (125 μl) were analyzed by high performance liquid chromatography (HPLC; Hitachi Instruments, Inc., San Jose, Calif., USA) with UV detection (265 nm). Reversed-phase chromatography was carried out using a μBondapak Phenyl column (10 μm, 3.9×300 mm; Waters Corporation, Milford, Mass., USA), and a μBondapak Phenyl guard-pak insert (Waters Corporation, Milford, Mass., USA).
Data analysis and statistics. Results were expressed as mean ± standard deviation (SD) of a single experiment performed in triplicate. […]

[9] = system: neoplastic cells; settings: in vitro; cited from earlier work

Compound: C[C@@H]1C[C@H]2[C@@H]3CCC4=CC(=O)C=C[C@]4(C)C3=CC[C@]2(C)[C@H]1C(=O)CN1CCN(c2cc(N3CCCC3)nc(N3CCCC3)n2)CC1 [Tirilazad]
- inhibition of photoaffinity labeling of p-glycoprotein relative to verapamil [1]: more effectively than does verapamil
- sensitization of resistant cells to killing by vinblastine [2]: 66 fold

Compound: CN1CC[C@H](c2c(O[C@@H]3O[C@H](C(=O)O)[C@@H](O)[C@H](O)[C@H]3O)cc(O)c3c(=O)cc(-c4ccccc4Cl)oc23)[C@H](O)C1 [flavopiridol glucuronide, 7-O-β-glucopyranuronosyl-flavopiridol]
- inter-patient variability of plasma level (coefficient of variation) at 23 h ([3]; human, in vivo): 83%
- inter-patient variability of plasma level (coefficient of variation) at 47 h ([3]; human, in vivo): 102%
- inter-patient variability of plasma level (coefficient of variation) at 71 h ([3]; human, in vivo): 107%

Compound: O=C1CN=C(c2ccccc2Cl)c2cc([N+](=O)[O-])ccc2N1 [Clonazepam, 2H-1,4-Benzodiazepin-2-one, 5-(2-chlorophenyl)-1,3-dihydro-7-nitro-]
- therapeutic plasma levels ([4]; human, in vivo): 20 to 80 ng/mL

Compound: OCCN1CCN(CC/C=C2\c3ccccc3Sc3ccc(C(F)(F)F)cc32)CC1 [trans-flupenthixol]
- potency for reversing MDR relative to equimolar concentrations of verapamil [5]: two- to three-fold more potent
- reversal of resistance to doxorubicin, vincristine, and colchicine [5]: fully reversed resistance

Compound: Cc1ccc(C)c(OCCCC(C)(C)C(=O)O)c1 [gemfibrozil]
- plasma concentration after 2 hours ([4]; single dose 600 mg): about 15 Ug/ml
- plasma concentration after 9 hours ([4]; single dose 600 mg): ~5 Ug/ml

Compound: CCOC(=O)C1=C(C)NC(C)=C(C(=O)OC)C1c1cccc([N+](=O)[O-])c1 (centres unmarked) [Nitrendipine, 3,5-Pyridinedicarboxylic acid, 1,4-dihydro-2,6-dimethyl-4-(3-nitrophenyl)-, ethyl methyl ester]
- bound to plasma protein ([4]; human, in vivo): About 98%
- half-life, average or usual value ([4]; human, in vivo): 12 h

Compound: CCOC(=O)C(C)(C)Oc1ccc(Cl)cc1 [Clofibrate, propanoic acid, 2-(4-chlorophenoxy)-2-methyl-,ethyl ester]
- half-life in anuria ([4]; anuria): over 100 hr
- half-life, average or usual value ([4]; human, in vivo): 11 h
- fraction metabolized ([4]; mostly to a glucuronide conjugate): About 60%

Compound: CCN1CCN(C(=O)N[C@@H](C(=O)N[C@@H]2C(=O)N3C(C(=O)O)=C(CSc4nnnn4C)CS[C@H]23)c2ccc(O)cc2)C(=O)C1=O [Cefoperazone]
- eliminated by biliary secretion ([4]; human, in vivo): 70%
- eliminated by urinary excretion ([4]; human, in vivo): 30%

Compound: COC(=O)[C@H]1[C@H]2C[C@@H]3c4[nH]c5cc(OC)ccc5c4CCN3C[C@H]2C[C@@H](OC(=O)c2cc(OC)c(OC)c(OC)c2)[C@@H]1OC [Reserpine, Yohimban-16-carboxylic acid, 11,17-dimethoxy-18-[(3,4,5-trimethoxybenzoyl)oxy]-, methyl ester, (3β, 16β, 17α, 18β, 20α)-]
- absorption (in words) [4]: absorbed poorly and erratically

Compound: CC(C)(C)c1ccc(C(O)CCCN2CCC(C(O)(c3ccccc3)c3ccccc3)CC2)cc1 (stereo not drawn) [Terfenadine, 1-Piperidinebutanol, α-[4-(1,1-dimethylethyl)phenyl]-4-(hydroxydiphenylmethyl)-]
- bound to plasma protein ([4]; human, in vivo): 97%
- absorption (in words) [4]: absorbed rapidly and almost completely

Compound: CN(C)CCCN1c2ccccc2Sc2ccc(Cl)cc21 [Chlorpromazine hydrochloride, 10H-Phenothiazine-10-propanamine, 2-chloro-N,N-dimethyl-, mono hydrochloride]
- volume of distribution after intramuscular administration ([4]; intramuscular): 21.8 L/kg

Compound: CC[C@H](C)[C@H]1O[C@]2(CC[C@@H]1C)C[C@@H]1C[C@@H](C/C=C(\C)[C@@H](O[C@H]3C[C@H](OC)[C@@H](O[C@H]4C[C@H](OC)[C@@H](O)[C@H](C)O4)[C@H](C)O3)[C@@H](C)/C=C/C=C3\CO[C@@H]4[C@H](O)C(C)=C[C@@H](C(=O)O1)[C@]34O)O2 [ivermectin]
- time to peak concentrations in plasma ([4]; oral administration): ≤ 4 h
- half-life ([4]; verapamil: normal persons): about 10 hours

Compound: CC[C@H](C)C1C(=O)N(C)[C@@H]([C@@H](C)CC)C(=O)NCC(=O)N(C)[C@@H](C(C)C)C(=O)N[C@@H](Cc2ccc(OC)cc2)C(=O)O[C@@H](C)C(=O)N2CCCC[C@H]2C(=O)N(C)[C@@H](C(C)C)C(=O)N[C@@H](C(C)C)C(=O)N(C)[C@@H](CC(=O)OC(C)(C)C)C(=O)N1C (some centres unmarked) [SDZ 280-446] (cyclo(G[NMeV]Y(Me)[Lac][Pip][NMeV]V[NMeD](OtBu)[NMeξIle][NMeI]))
- p-glycoprotein inhibition relative to verapamil [6]: stronger inhibitors than verapamil

Compound: CCCN(CCC)S(=O)(=O)c1ccc(C(=O)O)cc1 [Probenecid]
- absorption (in words) [4]: completely absorbed

Compound: O=C1NC(=O)C(c2ccccc2)(c2ccccc2)N1.[Na] [Phenytoin Sodium, 2,4-Imidazolidinedione, 5,5-diphenyl-, monosodium salt]
- lethal plasma levels ([4]; human, in vivo): ~100 µg/mL

Compound: CC(C)NCC(O)COc1cccc2ccccc12 (centres unmarked) [Propranolol]
- bound to plasma protein ([4]; human, in vivo): Approximately 90%
- variability in plasma concentrations after oral administration ([4]; inter-individual): approximately 20 fold

Compound: CN1CC[C@H](c2c(O)cc(O)c3c(=O)cc(-c4ccccc4Cl)oc23)[C@H](O)C1 [flavopiridol]
- extensive glucuronidators who did not develop diarrhea ([7]; extensive glucuronidators): 73%
- patients with grade 1 diarrhea ([7]; first cycle): Five
- patients with grade 2 diarrhea ([7]; first cycle): six
- patients with grade 3 diarrhea ([7]; first cycle): two
- extensive glucuronidators who did not develop diarrhea ([7]; metabolic ratio at 71 h higher than 1.2): 8 of 11
- poor glucuronidators who developed diarrhea ([7]; metabolic ratio at 71 h lower than 1.2): 10 of 11
- diarrhea present in poor glucuronidators of flavopiridol ([7]; poor glucuronidators): 91%
- Km at 3 h [8]: 642 µM
- inter-patient variability of plasma level (coefficient of variation) at 23 h ([3]; 23 h): 81%
- concentration at 23 h ([3]; human, plasma, intravenous, 72 h-continuous infusion 50 mg/m2/day, first cycle, 23 h into the infusion, 22 patients, read-out: median plasma concentration (interquartile range) at 23 h): 389 nM
- concentration at 47 h ([3]; human, plasma, intravenous, 72 h-continuous infusion 50 mg/m2/day, first cycle, 47 h into the infusion, read-out: median plasma concentration (interquartile range) at 47 h): 412 nM
- concentration at 71 h ([3]; human, plasma, intravenous, 72 h-continuous infusion 50 mg/m2/day, first cycle, 71 h into the infusion, read-out: median plasma concentration (interquartile range) at 71 h): 397 nM
- concentrations showing differential growth inhibitory activity [9]: below 200 nM

Compound: benzothiazepin-4(5H)-one, 3-(acetyloxy)-5-[2-(dimethylamino)ethyl]-2,3-dihydro-2-(4-methoxyphenyl)-, (+)-cis-, monohydrochloride [Diltiazem]
- bound to plasma protein ([4]; human, in vivo): 70-80%
- drug appearing unchanged in the urine ([4]; human, in vivo): Less than 4%
- fraction of an oral dose absorbed ([4]; oral): 80%
- half-life ([4]; plasma/serum/elimination half-life as printed): about 4 hr

Compound: OCCN1CCN(CCCN2c3ccccc3Sc3ccc(C(F)(F)F)cc32)CC1 [Fluphenazine hydrochloride]
- absorption (in words) [4]: absorbed rapidly

Compound: CCC1(c2ccccc2)C(=O)NC(=O)NC1=O [Phenobarbital, 2,4,6(1H,3H,5H)-Pyrimidinetrione, 5-ethyl-5-phenyl-]
- fraction of an oral dose absorbed ([4]; human, in vivo, po): Approximately 80%
- therapeutic plasma levels ([4]; human, in vivo): 10000 to 30000 ng/mL
- time to peak plasma levels ([4]; human, in vivo): 16 to 18 h

Compound: C=C[C@H]1C[N@@]2CC[C@H]1C[C@@H]2[C@@H](O)c1ccnc2ccc(OC)cc12 [Quinidine]
- elimination by hepatic biotransformation ([4]; human, in vivo): 50-60%
